According to US20140142180A1, “METHODS OF TREATING TUMORS HAVING ELEVATED MCT1 EXPRESSION” (Whitehead Institute for Biomedical Research, priority 2012, published 2014):

Tests used:
Format in all cases: cell-based, human
parental KBM7 cells [1] = assay: Extracellular flux analysis (ECAR), parental KBM7 cells; conditions: 50 μM 3-BrPA
Procedure: (§1) The bioenergetic profiles of KBM7 and MDA-MB-231 cells in response to 3-BrPA were determined using a Seahorse Bioscience XF24 Extracellular Flux Analyzer (Seahorse Bioscience). For the indicated experiments, 250,000 KBM7 or 40,000 MDA-MB-231 cells seeded in Seahorse tissue culture plates using unbuffered RPMI (10 mM Glucose). KBM7 cells were attached to the plates using CellTak (Clontech) one hour prior to the start of the experiment. For AUC (area under the curve) OCR and ECAR measurements, three consecutive readings were performed for each cell line. For experiments where 3-BrPA is used, after 3 consecutive readings, 50 μM 3-BrPA was injected through port A and ECAR and OCAR levels were measured. Lactate production was measured as described previously^50. For ATP assays, 20,000 cells were seeded and treated for 30 min with indicated amounts of 3-BrPA and ATP levels were determined using a luciferase-based assay (Promega). For metabolite measurements, 10 million wild type and MCT1 null KBM7 cells were cultured for 1 hour in presence of 50 μM 3-BrPA before metabolite extraction. Then, cells were rapidly washed three times with cold PBS, and then metabolites were extracted by addition of 80% ice-cold methanol followed after incubation on dry ice for 15 min. Endogenous metabolite profiles were obtained using LC-MS as described^51. Metabolite levels (n=3) were normalized to cell number.

parental KBM7 cells [2] = assay: Luciferase-based ATP assay, parental KBM7 cells; conditions: 30 min treatment
Procedure: as §1

MCT1-null KBM7 cells = assay: Cell survival assay, MCT1-null KBM7 clones
Procedure: A haploid cell genetic screen with 3-BrPA was performed using 100 million mutagenized KBM7 cells as described previously^29. Mutagenized haploid KBM-7 cells were exposed to 50 μM 3-BrPA for 3 weeks. Surviving clones were harvested and genomic DNA was isolated and insertions were amplified. The sequences flanking retroviral insertion sites were mapped to the human genome using inverse PCR followed by Ilium in a sequencing. Genomic regions with a high density of insertions were identified using the proximity index for a given insertion. Additionally, the statistical enrichment of insertions at a given locus in the selected population was calculated by comparing the number of inactivating insertions to those in the untreated control dataset via a Fisher's Exact Test. Individual clones were isolated among 50 different clones and genomic DNA for individually selected clones were isolated using a genomic DNA isolation kit (Qiagen). Genomic insertions were identified by inverse PCR and subsequent sequencing as described previously^24.
Cell lines (5,000-20,000) were seeded in 96-well plates and treated with indicated amounts of 3-BrPA. After 3 days of treatment, CellTiter-Glo (Promega) and/or CyQuant (Invitrogen) were used to measure survival percentage for each concentration compared to untreated cells. […]

O=C(O)C(=O)CBr [3-BrPA, 3-bromopyruvic acid]
extracellular acidification rate (ECAR), a proxy for lactate production (parental KBM7 cells [1]): substantial decrease | total ATP levels (parental KBM7 cells [2]): substantial decrease | sensitivity to 3-BrPA after re-expression of MCT1 (MCT1-null KBM7 cells; MCT1-null KBM7 cells with exogenous MCT1): nearly completely restored their sensitivity | resistance to 3-BrPA (MCT1-null KBM7 cells; MCT1-null KBM7 clones (Clone A and B), 50 μM, 3 days): completely resistant
